“And” between values parts separate entries of the source, which are not always exact repeats. Equal entries are not always repeated. ± gives the expanded uncertainty stated by the source.
How the values were obtained:
[1] = Molar enthalpy of transition or fusion; details: Crystal; DSC
[2] = Crystal; DTA

Molar enthalpy of transition or fusion [1]: 11.3 kcal/mol and 11.2 kcal/mol
Normal melting temperature [2]: 99.60 ± 0.7 °C and 101.20 ± 0.7 °C
Compound: O.O.O=C(O)C(=O)O [ethanedioic acid dihydrate]
